Data as given in patent US20080176857A1, “4-Piperazinnylthieno[2,3-d]Pyrimidine Compounds as Platelet Aggregation Inhibitors” (priority 2005, published 2008).
Values joined by “and” are separate entries in the source; they are usually repeats but may differ in a detail not shown here. Equal entries are not always repeated.

Target: P2Y12 receptor (Homo sapiens, UniProt Q9H244)
Test: [33P]-2MeS-ADP binding to recombinant human P2Y12 membranes (Assay 3)
Set-up: expressed in transfected cells; host or cells: HEK cells
Conditions: for IC50 / Ki: HEK cell membranes expressing human P2Y12, competition with 33P 2MeS-ADP; for % Inhibition / inhibition at 10 µM / inhibition at 1 µM: at highest concentration tested
Experimental: 3. Human P2Y12 Recombinant Cell Membrane Binding Assay with ^33P 2MeS-ADP.
The ability of a test compound to bind to the P2Y12 receptor was evaluated in a recombinant cell membrane binding assay. In this competitive binding assay, the test compound competed against a radiolabelled agonist for binding to the P2Y12 receptor, expressed on the cell membrane. Inhibition of binding of the labeled material was measured and correlated to the amount and potency of the test compound. Data from this assay are presented in Table F. This binding assay is a modification of the procedure in Takasaki, J. et. al, Mol. Pharmacol., 2001, Vol. 60, pg. 432.
HEK cells were transfected with the pDONR201P2Y12 vector and cultured in MEM with GlutaMAX I, Earle's salts, 25 mM HEPES (Gibco # 42360-032) containing 10% dialyzed FBS (Gibco # 26400-044), 100 μM nonessential amino acids (Gibco # 11140-050), 1 mM sodium pyruvate (Gibco # 11360-070), 0.05% geneticin (Gibco #10131-027), 3 μg/mL blasticidin (Fluka brand from Sigma # 15205), and 0.5 μg/mL puromycin (Sigma # P-8833).
Confluent cells were washed once with cold DPBS (Gibco # 14190-136). Fresh DPBS was added and the cells were scraped and centrifuged at 500×g for 5 minutes at 4° C. The cell pellets were resuspended in TEE buffer (25 mM Tris, 5 mM EDTA, 5 mM EGTA) containing 1 protease inhibitor cocktail tablet (Roche # 1 873 580) per 50 mL (called TEE+Complete) and can be flash frozen at this point.
In one embodiment, frozen cell pellets were used to prepare the membranes. In that embodiment, the frozen cell pellets were thawed on ice. In another embodiment, cell pellets may be used without flash freezing before moving on to the next step.
Cell pellets were resuspended in TEE buffer+Complete and homogenized in a glass dounce for 12 strokes. The cell suspension was centrifuged at 500×g for 5 minutes at 4° C. The supernatant was saved and centrifuged at 20,000×g for 20 minutes at 4° C. This supernatant was discarded and the cell pellet resuspended in TEE buffer+Complete and homogenized in a glass dounce for 12 strokes. This suspension was centrifuged at 20,000×g for 20 minutes at 4° C. and the supernatant discarded. The pellet was resuspended in assay buffer (50 mM Tris, 100 mM NaCl, 1 mM EDTA) containing one protease inhibitor cocktail tablet per 50 mL, and can be flash frozen as 1 mL aliquots at this point.
Dry compounds were diluted as 10 mM DMSO stocks and tested in a seven-point, three-fold dilution series run in triplicate beginning at 10 μM, final concentration. A 1 mM DMSO intermediate stock was made in a dilution plate and from this the seven dilutions were made to 5× the final concentration in assay buffer containing 0.02% BSA.
The plates were incubated at room temperature for 1 hour. The reaction was stopped using a cell harvester to transfer the reaction mixture onto GF/B UniFilter plates (Perkin Elmer # 6005177), and washed three times with wash buffer (50 mM Tris), filtering between each wash. The filter plates were dried for approximately 20 minutes in an oven at 50° C. Back seals were adhered to the filter plates and 25 uL of Microscint 20 scintillation fluid (Perkin Elmer # 6013621) were added. The filter plates were sealed, shaken for 30 minutes, and counted on a Top Count. Data were analyzed using a four-parameter curve fit with a fixed minimum and maximum experimentally defined as the average positive and negative controls on each plate, and with a hill slope equal to one.
The table below presents the IC50, Ki, and percent inhibition values for compounds tested in either washed human platelets membrane binding assay (assay #1 above) or recombinant cell membrane binding assay (Assay #3, above). Example number refers to the compound prepared as described in the example noted in the section Working Examples, above. The highest concentration of candidate compound tested is listed for each experimental run presented. […]

P2Y12 receptor, sequence (Q9H244 whole entry): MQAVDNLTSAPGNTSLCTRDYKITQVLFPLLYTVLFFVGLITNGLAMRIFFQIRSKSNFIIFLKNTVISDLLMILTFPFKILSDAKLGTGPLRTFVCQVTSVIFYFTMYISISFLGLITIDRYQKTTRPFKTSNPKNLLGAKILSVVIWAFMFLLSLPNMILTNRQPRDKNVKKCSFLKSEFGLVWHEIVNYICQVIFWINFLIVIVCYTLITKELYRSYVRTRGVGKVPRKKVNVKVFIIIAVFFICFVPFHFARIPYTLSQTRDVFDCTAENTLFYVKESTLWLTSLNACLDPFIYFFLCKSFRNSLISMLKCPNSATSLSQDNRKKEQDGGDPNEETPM

| IC50 | Ki | % Inhibition (10 μM) | inhibition at 10 µM (10 μM) | inhibition at 1 µM (1 μM) | % Inhibition (1 μM) | SMILES |
| --- | --- | --- | --- | --- | --- | --- |
| 1020 nM and 380 nM and 420 nM and 320 nM | 582 nM and 210 nM and 240 nM and 174 nM | 89.51% and 95.92% and 94.06% | 92.9% | – | – | CCc1cc2c(N3CCN(C(=O)Cc4ccccc4)CC3)nc(SCC(=O)OC)nc2s1 [Example 7, methyl ({6-ethyl-4-[4-(phenylacetyl)piperazin-1-yl]thieno[2,3-d]pyrimidin-2-yl}thio)acetate] |
| 1200 nM | 720 nM and 680 nM | 81.44% | 81.3% | – | – | CCc1cc2c(N3CCN(C(=O)Cc4ccccc4)CC3)nc(S(=O)(=O)CC(=O)OC)nc2s1 [Example 8, Methyl ({6-ethyl-4-[4-(phenylacetyl)piperazin-1-yl]thieno[2,3-d]pyrimidin-2-yl}sulfonyl)acetate] |
| > 10000 nM and 9300 nM | > 5900 nM and 5400 nM | – | – | – | – | CCc1cc2c(N3CCN(C(=O)Cc4ccccc4)CC3)nc(SCC(=O)Nc3ccc4ccccc4c3)nc2s1 [Example 9, 2-({6-Ethyl-4-[4-(phenylacetyl)piperazin-1-yl]thieno[2,3-d]pyrimidin-2-yl}thio)-N-2-naphthylacetamide] |
| 990 nM and 550 nM | 570 nM and 330 nM | 79.53% | 82.3% | – | – | C=CCSc1nc(N2CCN(C(=O)Cc3ccccc3)CC2)c2cc(CC)sc2n1 [Example 10, 2-(Allylthio)-6-ethyl-4-[4-(phenylacetyl)piperazin-1-yl]thieno[2,3-d]pyrimidine] |
| 330 nM and 230 nM and 270 nM and 328 nM | 190 nM and 130 nM and 160 nM and 189 nM | 92.50% and 88.81% | 90.5% | 81% | – | CCc1cc2c(N3CCN(C(=O)Cc4ccccc4)CC3)nc(SC(C)C(=O)NCC(=O)O)nc2s1 (stereo not shown) [Example 11, N-[2-({6-Ethyl-4-[4-(phenylacetyl)piperazin-1-yl]thieno[2,3-d]pyrimidin-2-yl}thio)propanoyl]glycine] |
| 340 nM and 370 nM | 200 nM and 210 nM | 92.83% | 83.4% | – | – | CCc1cc2c(N3CCN(C(=O)Cc4ccccc4)CC3)nc(SCC(O)CO)nc2s1 (stereo not shown) [Example 12, 3-({6-Ethyl-4-[4-(phenylacetyl)piperazin-1-yl]thieno[2,3-d]pyrimidin-2-yl}thio)propane-1,2-diol] |
| 280 nM and 530 nM | 160 nM and 310 nM | 88.77% | 88.2% | – | – | CCc1cc2c(N3CCN(C(=O)Cc4ccccc4)CC3)nc(SCC(=O)NC)nc2s1 [Example 13, 2-({6-Ethyl-4-[4-(phenylacetyl)piperazin-1-yl]thieno[2,3-d]pyrimidin-2-yl}thio)-N-methylacetamide] |
| 290 nM and 330 nM | 160 nM and 200 nM | 83.72% | 89.9% | – | – | CCc1cc2c(N3CCN(C(=O)Cc4ccccc4)CC3)nc(SC(C)C(C)=O)nc2s1 (stereo not shown) [Example 14, 3-({6-Ethyl-4-[4-(phenylacetyl)piperazin-1-yl]thieno[2,3-d]pyrimidin-2-yl}thio)butan-2-one] |
| 300 nM | 170 nM | 92.26% | 87% | – | – | CCc1cc2c(N3CCN(C(=O)Cc4ccccc4)CC3)nc(SCCNC(C)=O)nc2s1 [Example 15, N-[2-({6-Ethyl-4-[4-(phenylacetyl)piperazin-1-yl]thieno[2,3-d]pyrimidin-2-yl}thio)ethyl]acetamide] |
| 270 nM and 360 nM | 150 nM and 210 nM | 87.82% | 88.7% | – | – | CCc1cc2c(N3CCN(C(=O)Cc4ccccc4)CC3)nc(SC[C@H](N)C(=O)OC)nc2s1 [Example 16, Methyl S-{6-ethyl-4-[4-(phenylacetyl)piperazin-1-yl]thieno[2,3-d]pyrimidin-2-yl}-L-cysteinate] |
| 500 nM and 530 nM | 290 nM and 310 nM | 87.05% | 90.6% | – | – | CCc1cc2c(N3CCN(C(=O)Cc4ccccc4)CC3)nc(SCC(C)O)nc2s1 (stereo not shown) [Example 17, 1-({6-Ethyl-4-[4-(phenylacetyl)piperazin-1-yl]thieno[2,3-d]pyrimidin-2-yl}thio)propan-2-ol] |
| 22 nM and 10 nM and 20 nM and 43 nM | 12 nM and 10 nM and 25 nM | 98.24% | 95.8% | 91.9% | 95.00% | CCc1cc2c(N3CCN(C(=O)c4ccc(-c5ccccc5)cc4)CC3)nc(Cl)nc2s1 [Example 21, 4-[4-(1,1′-Biphenyl-4-ylcarbonyl)piperazin-1-yl]-2-chloro-6-ethylthieno[2,3-d]pyrimidine] |
| 43 nM and 51 nM | 25 nM and 28 nM | 90.70% | 92.7% | – | – | CCc1cc2c(N3CCN(C(=O)c4ccc(-c5ccccc5)cc4)CC3)nc(SCC(=O)OC)nc2s1 [Example 22, Methyl ({4-[4-(1,1′-biphenyl-4-ylcarbonyl)piperazin-1-yl]-6-ethylthieno[2,3-d]pyrimidin-2-yl}thio)acetate] |
| – | – | 75.04% | 64.6% | – | – | CCc1cc2c(N3CCN(C(=O)Cc4ccccc4)CC3)nc(SCC(=O)Nc3ccccc3)nc2s1 [Example 23, 2-({6-Ethyl-4-[4-(phenylacetyl)piperazin-1-yl]thieno[2,3-d]pyrimidin-2-yl}thio)-N-phenylacetamide] |
| 190 nM and 240 nM | 110 nM and 130 nM | 92.16% | 83.1% | – | – | CCc1cc2c(N3CCN(C(=O)Cc4ccccc4)CC3)nc(SCC(N)=O)nc2s1 [Example 24, 2-({6-Ethyl-4-[4-(phenylacetyl)piperazin-1-yl]thieno[2,3-d]pyrimidin-2-yl}thio)acetamide] |
| 200 nM and 270 nM | 110 nM and 150 nM | 94.08% | 88.6% | – | – | CCc1cc2c(N3CCN(C(=O)Cc4ccccc4)CC3)nc(SC(C)C(=O)O)nc2s1 (stereo not shown) [Example 25, 2-({6-Ethyl-4-[4-(phenylacetyl)piperazin-1-yl]thieno[2,3-d]pyrimidin-2-yl}thio)propanoic acid] |
| 800 nM | 460 nM and 430 nM | 88.94% | 88.7% | – | – | CCc1cc2c(N3CCN(C(=O)Cc4ccccc4)CC3)nc(SCCc3ccncc3)nc2s1 [Example 26, 6-Ethyl-4-[4-(phenylacetyl)piperazin-1-yl]-2-[(2-pyridin-4-ylethyl)thio]thieno[2,3-d]pyrimidine] |
| 100 nM | 58 nM | – | 96.5% | – | – | CCc1cc2c(N3CCN(C(=O)c4ccc(-c5ccccc5)cc4)CC3)nc(SCCNC(C)=O)nc2s1 [Example 27, N-[2-({4-[4-(1,1′-Biphenyl-4-ylcarbonyl)piperazin-1-yl]-6-ethylthieno[2,3-d]pyrimidin-2-yl}thio)ethyl]acetamide] |
| 38 nM | 22 nM | – | 94.3% | – | – | CCc1cc2c(N3CCN(C(=O)c4ccc(-c5ccccc5)cc4)CC3)nc(SCC(O)CO)nc2s1 (stereo not shown) [Example 28, 3-({4-[4-(1,1′-Biphenyl-4-ylcarbonyl)piperazin-1-yl]-6-ethylthieno[2,3-d]pyrimidin-2-yl}thio)propane-1,2-diol] |
| 160 nM | 91 nM | – | 82.2% | – | – | CCc1cc2c(N3CCN(C(=O)c4ccc(-c5ccccc5)cc4)CC3)nc(SC(C)C(C)=O)nc2s1 (stereo not shown) [Example 29, 3-({4-[4-(1′-Biphenyl-4-ylcarbonyl)piperazin-1-yl]-6-ethylthieno[2,3-d]pyrimidin-2-yl}thio)butan-2-one] |
| 31 nM | 18 nM | – | 99.7% | – | – | CCc1cc2c(N3CCN(C(=O)c4ccc(-c5ccccc5)cc4)CC3)nc(SCC(N)=O)nc2s1 [Example 31, 2-({4-[4-(1,1′-Biphenyl-4-ylcarbonyl)piperazin-1-yl]-6-ethylthieno[2,3-d]pyrimidin-2-yl}thio)acetamide] |
